From PMC10039899, “Integrative proteogenomic characterization of early esophageal cancer” (Nature Communications, 2023)

Target: T1, phosphoglycerate kinase 1 (PGK1) (Homo sapiens, UniProt P00558)
T1 construct: Flag-tagged PGK1, whole-length cDNA, purified from HEK293T cells
T1 sequence (P00558 2-417): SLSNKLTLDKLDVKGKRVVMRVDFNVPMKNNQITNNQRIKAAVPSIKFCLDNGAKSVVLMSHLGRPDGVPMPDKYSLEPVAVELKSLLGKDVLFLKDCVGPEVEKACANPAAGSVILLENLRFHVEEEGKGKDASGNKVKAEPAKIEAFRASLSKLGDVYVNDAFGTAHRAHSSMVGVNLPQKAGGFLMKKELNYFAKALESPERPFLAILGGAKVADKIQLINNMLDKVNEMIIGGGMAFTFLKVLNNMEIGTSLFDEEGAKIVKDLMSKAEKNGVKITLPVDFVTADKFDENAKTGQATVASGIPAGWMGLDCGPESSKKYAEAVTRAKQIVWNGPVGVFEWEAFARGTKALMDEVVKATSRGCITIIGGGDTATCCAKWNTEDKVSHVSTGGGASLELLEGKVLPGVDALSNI
Experiment: in vitro enzymatic assay of purified Flag-PGK1, GAPDH-coupled, NADH decrease at […] nm
Type: biochemical

Compound `Nc1ccn([C@@H]2O[C@H](CO)[C@@H](O)C2(F)F)c(=O)n1` [gemcitabine] has an IC50 of 0.0163 µM.
